Key:
[1] = biological target: Phosphatidylinositol 4,5-bisphosphate 3-kinase catalytic subunit beta isoform (Homo sapiens, UniProt P42338); assay: (§1) Biochemical Assay: PI3K Isoform using biochemical assay.
[2] = biological target: T1, Phosphatidylinositol 4,5-bisphosphate 3-kinase catalytic subunit delta isoform (Homo sapiens, UniProt O00329); assay: as §1
T1 sequence (O00329 whole entry): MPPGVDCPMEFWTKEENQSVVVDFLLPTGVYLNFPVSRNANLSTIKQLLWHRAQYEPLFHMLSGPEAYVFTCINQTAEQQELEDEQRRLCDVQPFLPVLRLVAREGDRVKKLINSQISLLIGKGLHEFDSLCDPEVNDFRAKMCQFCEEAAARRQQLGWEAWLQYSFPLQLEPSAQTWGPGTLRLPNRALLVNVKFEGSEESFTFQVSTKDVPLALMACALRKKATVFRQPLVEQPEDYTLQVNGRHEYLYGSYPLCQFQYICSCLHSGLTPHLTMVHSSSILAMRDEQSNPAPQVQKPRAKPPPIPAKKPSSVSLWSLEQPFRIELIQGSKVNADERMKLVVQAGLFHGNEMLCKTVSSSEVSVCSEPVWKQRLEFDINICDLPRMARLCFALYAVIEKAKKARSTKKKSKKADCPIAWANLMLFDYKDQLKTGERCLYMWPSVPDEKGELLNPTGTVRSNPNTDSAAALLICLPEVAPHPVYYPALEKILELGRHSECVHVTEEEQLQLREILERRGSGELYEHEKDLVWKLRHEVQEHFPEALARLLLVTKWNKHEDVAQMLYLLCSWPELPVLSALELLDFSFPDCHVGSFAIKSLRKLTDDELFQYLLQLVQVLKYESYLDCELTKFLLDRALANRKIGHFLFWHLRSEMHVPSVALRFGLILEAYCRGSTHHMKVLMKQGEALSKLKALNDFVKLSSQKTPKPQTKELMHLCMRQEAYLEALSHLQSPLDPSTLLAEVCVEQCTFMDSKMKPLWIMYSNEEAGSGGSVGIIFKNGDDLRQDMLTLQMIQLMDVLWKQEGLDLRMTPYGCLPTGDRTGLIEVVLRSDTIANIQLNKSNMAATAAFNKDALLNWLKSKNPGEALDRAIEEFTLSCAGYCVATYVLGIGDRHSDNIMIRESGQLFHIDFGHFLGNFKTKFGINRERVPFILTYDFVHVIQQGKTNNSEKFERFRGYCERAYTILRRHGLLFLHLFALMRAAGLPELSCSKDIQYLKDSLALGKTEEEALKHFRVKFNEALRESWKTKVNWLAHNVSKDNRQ

[3] = biological target: Phosphatidylinositol 4,5-bisphosphate 3-kinase catalytic subunit alpha isoform (Homo sapiens, UniProt P42336); assay: as §1
[4] = biological target: Phosphatidylinositol 4,5-bisphosphate 3-kinase catalytic subunit gamma isoform (Homo sapiens, UniProt P48736); assay: as §1
Chain of Phosphatidylinositol 4,5-bisphosphate 3-kinase catalytic subunit gamma isoform (P48736 whole entry, canonical isoform): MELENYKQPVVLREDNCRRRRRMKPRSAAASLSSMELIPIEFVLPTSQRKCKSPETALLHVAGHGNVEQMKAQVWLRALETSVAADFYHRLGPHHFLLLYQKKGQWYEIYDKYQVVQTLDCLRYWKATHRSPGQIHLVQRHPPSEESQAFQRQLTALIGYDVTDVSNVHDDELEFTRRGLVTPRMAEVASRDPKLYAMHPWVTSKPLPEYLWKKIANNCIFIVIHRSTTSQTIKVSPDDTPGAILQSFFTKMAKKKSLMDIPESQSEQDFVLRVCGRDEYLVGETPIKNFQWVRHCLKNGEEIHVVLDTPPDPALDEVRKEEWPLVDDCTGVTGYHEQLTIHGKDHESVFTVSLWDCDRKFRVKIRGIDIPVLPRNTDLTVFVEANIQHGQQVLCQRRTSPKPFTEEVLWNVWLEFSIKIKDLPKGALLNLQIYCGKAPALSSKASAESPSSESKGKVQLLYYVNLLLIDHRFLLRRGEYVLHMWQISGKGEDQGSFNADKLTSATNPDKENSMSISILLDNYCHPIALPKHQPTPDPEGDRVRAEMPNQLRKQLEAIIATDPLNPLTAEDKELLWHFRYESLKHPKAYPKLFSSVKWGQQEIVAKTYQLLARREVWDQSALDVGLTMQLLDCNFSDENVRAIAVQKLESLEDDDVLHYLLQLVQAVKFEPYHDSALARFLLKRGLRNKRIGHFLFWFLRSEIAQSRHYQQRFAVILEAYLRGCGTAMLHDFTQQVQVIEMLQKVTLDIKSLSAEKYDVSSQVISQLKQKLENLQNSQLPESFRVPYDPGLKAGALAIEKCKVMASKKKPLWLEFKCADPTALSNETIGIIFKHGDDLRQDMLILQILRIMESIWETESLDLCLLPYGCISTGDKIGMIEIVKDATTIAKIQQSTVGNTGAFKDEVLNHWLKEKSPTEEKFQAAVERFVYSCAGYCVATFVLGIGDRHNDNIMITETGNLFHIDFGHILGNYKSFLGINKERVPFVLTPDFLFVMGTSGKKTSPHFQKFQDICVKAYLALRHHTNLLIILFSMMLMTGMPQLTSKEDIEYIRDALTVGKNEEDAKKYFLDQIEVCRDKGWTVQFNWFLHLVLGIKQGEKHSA

Chain of Phosphatidylinositol 4,5-bisphosphate 3-kinase catalytic subunit alpha isoform (P42336 whole entry, canonical isoform): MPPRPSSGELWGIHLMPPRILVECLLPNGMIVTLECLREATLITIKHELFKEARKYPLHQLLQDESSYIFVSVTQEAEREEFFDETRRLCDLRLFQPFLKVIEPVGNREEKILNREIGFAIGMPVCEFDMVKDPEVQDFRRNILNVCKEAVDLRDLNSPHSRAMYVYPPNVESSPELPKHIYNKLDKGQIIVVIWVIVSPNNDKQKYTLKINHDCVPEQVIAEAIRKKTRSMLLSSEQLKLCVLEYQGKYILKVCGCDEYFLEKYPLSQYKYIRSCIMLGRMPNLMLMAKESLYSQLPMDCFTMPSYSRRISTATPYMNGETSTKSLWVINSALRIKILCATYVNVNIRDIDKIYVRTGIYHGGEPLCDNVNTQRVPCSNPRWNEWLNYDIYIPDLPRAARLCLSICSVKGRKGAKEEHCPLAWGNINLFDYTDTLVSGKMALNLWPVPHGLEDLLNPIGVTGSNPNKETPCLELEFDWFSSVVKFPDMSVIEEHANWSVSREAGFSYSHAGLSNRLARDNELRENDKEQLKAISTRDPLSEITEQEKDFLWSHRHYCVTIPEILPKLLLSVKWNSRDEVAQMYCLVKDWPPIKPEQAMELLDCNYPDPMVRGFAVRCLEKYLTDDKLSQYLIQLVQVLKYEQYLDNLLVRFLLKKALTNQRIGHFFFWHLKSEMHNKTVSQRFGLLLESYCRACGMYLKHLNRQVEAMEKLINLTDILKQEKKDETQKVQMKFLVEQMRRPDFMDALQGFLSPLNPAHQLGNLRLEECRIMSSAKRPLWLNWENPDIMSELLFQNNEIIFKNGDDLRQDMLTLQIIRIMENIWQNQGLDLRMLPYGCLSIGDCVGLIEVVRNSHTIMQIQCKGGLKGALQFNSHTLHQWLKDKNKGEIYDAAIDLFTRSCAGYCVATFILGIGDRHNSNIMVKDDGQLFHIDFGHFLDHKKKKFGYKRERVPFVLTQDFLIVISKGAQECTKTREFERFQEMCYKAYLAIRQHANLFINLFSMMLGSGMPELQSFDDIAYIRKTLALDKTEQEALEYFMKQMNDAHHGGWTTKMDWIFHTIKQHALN
Chain of Phosphatidylinositol 4,5-bisphosphate 3-kinase catalytic subunit beta isoform (P42338 whole entry, canonical isoform): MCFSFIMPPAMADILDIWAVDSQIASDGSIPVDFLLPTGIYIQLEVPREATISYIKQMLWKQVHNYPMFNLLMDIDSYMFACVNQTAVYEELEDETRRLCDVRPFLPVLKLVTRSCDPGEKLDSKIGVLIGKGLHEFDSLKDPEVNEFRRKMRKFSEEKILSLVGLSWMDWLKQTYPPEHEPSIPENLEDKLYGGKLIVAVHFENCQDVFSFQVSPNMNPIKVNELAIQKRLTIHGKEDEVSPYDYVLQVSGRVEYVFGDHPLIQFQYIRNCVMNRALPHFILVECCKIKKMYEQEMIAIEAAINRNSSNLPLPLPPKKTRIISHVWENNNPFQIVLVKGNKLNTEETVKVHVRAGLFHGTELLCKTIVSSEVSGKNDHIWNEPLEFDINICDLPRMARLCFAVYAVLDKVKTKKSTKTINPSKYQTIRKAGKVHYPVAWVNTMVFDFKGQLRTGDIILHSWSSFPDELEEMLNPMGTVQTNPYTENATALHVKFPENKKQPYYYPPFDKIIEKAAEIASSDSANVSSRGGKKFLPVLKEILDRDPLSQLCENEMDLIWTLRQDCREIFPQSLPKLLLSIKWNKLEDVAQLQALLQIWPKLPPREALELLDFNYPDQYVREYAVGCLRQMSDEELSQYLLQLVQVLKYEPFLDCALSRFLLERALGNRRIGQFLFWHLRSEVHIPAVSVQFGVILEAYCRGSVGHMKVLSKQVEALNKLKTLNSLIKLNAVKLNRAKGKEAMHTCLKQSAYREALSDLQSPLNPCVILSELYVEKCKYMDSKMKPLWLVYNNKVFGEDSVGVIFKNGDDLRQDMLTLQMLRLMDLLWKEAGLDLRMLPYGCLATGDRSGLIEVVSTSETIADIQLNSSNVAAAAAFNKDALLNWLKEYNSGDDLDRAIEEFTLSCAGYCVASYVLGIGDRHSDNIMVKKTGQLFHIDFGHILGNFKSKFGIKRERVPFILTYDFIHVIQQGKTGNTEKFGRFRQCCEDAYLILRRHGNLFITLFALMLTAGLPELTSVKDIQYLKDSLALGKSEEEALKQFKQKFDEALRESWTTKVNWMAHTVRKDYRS

Work on `c1cc(-c2nc(N3CCOCC3)c3oc4ncc(CN5CCCCC5)cc4c3n2)c2cc[nH]c2c1` yielded an IC50 [1] of 503 nM, an IC50 [2] of 10 nM and an IC50 [3] of 508 nM. For the same compound, the IC50 [4] was 4950 nM.

From ChEMBL document CHEMBL5725788, “Tricyclic heterocyclic compounds as phosphoinositide 3-kinase inhibitors” (2017)
